According to patent US20260144875A1, “COMPOSITIONS AND METHODS FOR CROSSLINKING STRUCTURAL PROTEINS” (ADS Therapeutics LLC, priority 2022, published 2026):
Values after ≈ are worked out from the molar mass of the structure shown.

How the values were obtained:
porcine corneas = assay: Ex vivo study (Dresden method), RTB-UVA crosslinking, static stress-strain, de-epithelialized corneas; conditions: de-epithelialized porcine corneal strips; 0.1% RTB in MCT or F6H8 or combination; UVA 370 nm, 3 mW/cm2, 30 minutes
Protocol: Fresh porcine cadaver eyes with intact epithelia and clear corneas are retrieved from the local slaughterhouse within 2 to 5 hours post-mortem. The eyes are de-epithelialized mechanically, removing the corneoscleral ring with scissors. […] Because of the natural thickness of the porcine cornea, only 1 corneal strip with clearly cut perpendicular edges could be prepared properly from each eye. Half of the corneas are treated with RTB-UVA irradiation, and half are used as untreated controls. Using ultrasound pachymetry (Pachette, Technomed), the central corneal thickness is determined in the eyes. […]
The porcine corneal strips are clamped horizontally at a distance of 8.0 mm between the jaws of a commercially available microcomputer-controlled biomaterial tester (Minimat, Rheometric Scientific GmbH. To include the physiological stress range, a prestress of 5×10^3 Pa (1 Pa=1 N/m2) is used, which requires a force of 20 mN in porcine corneas. The strain is then increased linearly with a velocity of 1.5 mm min-1, and the stress is measured up to 2×10^5 Pa. The stress-strain values are fitted by an exponential function σ=A exp (BX) using the SPSS-calculation program (SPSS GmbH Software, Munich). Young's modulus (E) is calculated for 4%, 6%, and 8% strain as the gradient of the stress-strain graph (E=dσ/dε=A×B exp (B×ε). […]

[1] = Solubility of RTB in MCT, F6H8 or mixed solvents, HPLC; type: physicochemical; conditions: 25° C.
Protocol: Solubility of riboflavin tetrabutyrate (RTB) was tested in medium chain triglycerides (MCT), F6H8, or mixtures of MCT/F6H8 at room temperature, and in F6H8 at 100° C. Solubility was analyzed as in Example 1a.

[2] = Stability of riboflavin tetrabutyrate in organic solvents; type: physicochemical; conditions: RTB
Description: The stability of riboflavin tetrabutyrate (RTB) in various solvents was investigated. Using similar sample analysis methods described in Examples 1a-1c, the stability of RTB in formulations of MCT, F6H8, and combinations were monitored at various temperatures.

[3] = Sample X1, 0.2%, MCT 100%, F6H8 0%, 2-8° C.
[4] = Sample X2, 0.2%, MCT 100%, F6H8 0%, 25° C.
[5] = Sample X3, 0.2%, MCT 100%, F6H8 0%, 40° C.
[6] = Sample X4, 0.1%, MCT 70%, F6H8 30%, 2-8° C.
[7] = Sample X5, 0.1%, MCT 70%, F6H8 30%, 25° C.
[8] = Sample X6, 0.1%, MCT 70%, F6H8 30%, 40° C.
[9] = Sample X7, 0.1%, MCT 50%, F6H8 50%, 2-8° C.
[10] = Sample X8, 0.1%, MCT 50%, F6H8 50%, 25° C.
[11] = Sample X9, 0.1%, MCT 50%, F6H8 50%, 40° C.

For `CCCC(=O)OC[C@@H](OC(=O)CCC)[C@@H](OC(=O)CCC)[C@H](Cn1c2nc(=O)[nH]c(=O)c-2nc2cc(C)c(C)cc21)OC(=O)CCC` [RTB, (2R,3S,4S)-5-(7,8-dimethyl-2,4-dioxo-3,4-dihydrobenzo[g]pteridin-10(2H)-yl) pentane-1,2,3,4-tetrayl tetrabutyrate], the “stress using strain, treated vs untreated corneas” value (porcine corneas) was “greater in the treated corneas”, the Solubility ([1]; Sample B2, MCT 100%, F6H8 0%) was 3.133 µg/mL (≈ 4.77 µM) and the Solubility ([1]; Sample B3, MCT 20%, F6H8 80%) was 0.316 µg/mL (≈ 0.481 µM). For the same compound, the Solubility ([1]; Sample B4, MCT 50%, F6H8 50%) was 1.124 µg/mL (≈ 1.71 µM), the Solubility ([1]; Sample B5, MCT 70%, F6H8 30%) was 1.582 µg/mL (≈ 2.41 µM) and the “Appearance (clear/precip.) 0 hr” value [2, 3] was “clear”. The “Conc. 0 hr” value [2, 3] was 2.055, mg/mL, the “Appearance (clear/precip.) 1 Month” value [2, 3] was “clear” and the “Conc. 1 Month” value [2, 3] was 1.832, mg/mL. The “Appearance (clear/precip.) 14 days” value [2, 3] was “clear”, the “Conc. 14 days” value [2, 3] was 1.837, mg/mL and the “Appearance (clear/precip.) 0 hr” value [2, 4] was “clear”. For the same compound, the “Conc. 0 hr” value [2, 4] was 2.055, mg/mL, the “Appearance (clear/precip.) 1 Month” value [2, 4] was “clear” and the “Conc. 1 Month” value [2, 4] was 1.817, mg/mL. The “Appearance (clear/precip.) 14 days” value [2, 4] was “clear”, the “Conc. 14 days” value [2, 4] was 1.888, mg/mL and the “Appearance (clear/precip.) 0 hr” value [2, 5] was “clear”. The “Conc. 0 hr” value [2, 5] was 2.055, mg/mL, the “Appearance (clear/precip.) 1 Month” value [2, 5] was “clear” and the “Conc. 1 Month” value [2, 5] was 1.833, mg/mL. For the same compound, the “Appearance (clear/precip.) 14 days” value [2, 5] was “clear”, the “Conc. 14 days” value [2, 5] was 1.958, mg/mL and the “Appearance (clear/precip.) 0 hr” value [2, 6] was “clear”. For the same compound, the “Conc. 0 hr” value [2, 6] was 1.077, mg/mL, the “Appearance (clear/precip.) 1 Month” value [2, 6] was “clear” and the “Conc. 1 Month” value [2, 6] was 0.960, mg/mL. For the same compound, the “Appearance (clear/precip.) 14 days” value [2, 6] was “clear”, the “Conc. 14 days” value [2, 6] was 1.015, mg/mL and the “Appearance (clear/precip.) 0 hr” value [2, 7] was “clear”. For the same compound, the “Conc. 0 hr” value [2, 7] was 1.077, mg/mL, the “Appearance (clear/precip.) 1 Month” value [2, 7] was “clear” and the “Conc. 1 Month” value [2, 7] was 0.953, mg/mL. The “Appearance (clear/precip.) 14 days” value [2, 7] was “clear”, the “Conc. 14 days” value [2, 7] was 1.012, mg/mL and the “Appearance (clear/precip.) 0 hr” value [2, 8] was “clear”. For the same compound, the “Conc. 0 hr” value [2, 8] was 1.077, mg/mL, the “Appearance (clear/precip.) 1 Month” value [2, 8] was “clear” and the “Conc. 1 Month” value [2, 8] was 0.962, mg/mL. For the same compound, the “Appearance (clear/precip.) 14 days” value [2, 8] was “clear”, the “Conc. 14 days” value [2, 8] was 1.027, mg/mL and the “Appearance (clear/precip.) 0 hr” value [2, 9] was “clear”. For the same compound, the “Conc. 0 hr” value [2, 9] was 1.123, mg/mL, the “Appearance (clear/precip.) 1 Month” value [2, 9] was “precip” and the “Conc. 1 Month” value [2, 9] was 0.848, mg/mL. The “Appearance (clear/precip.) 14 days” value [2, 9] was “precip”, the “Conc. 14 days” value [2, 9] was 0.976, mg/mL and the “Appearance (clear/precip.) 0 hr” value [2, 10] was “clear”. For the same compound, the “Conc. 0 hr” value [2, 10] was 1.123, mg/mL, the “Appearance (clear/precip.) 1 Month” value [2, 10] was “clear” and the “Conc. 1 Month” value [2, 10] was 0.993, mg/mL. The “Appearance (clear/precip.) 14 days” value [2, 10] was “clear”, the “Conc. 14 days” value [2, 10] was 1.056, mg/mL and the “Appearance (clear/precip.) 0 hr” value [2, 11] was “clear”. The “Conc. 0 hr” value [2, 11] was 1.123, mg/mL, the “Appearance (clear/precip.) 1 Month” value [2, 11] was “clear” and the “Conc. 1 Month” value [2, 11] was 0.984, mg/mL. The “Appearance (clear/precip.) 14 days” value [2, 11] was “clear” and the “Conc. 14 days” value [2, 11] was 1.054, mg/mL.
